6 compounds from patent publication EP0402259A1, “Anthracyclines, process for their preparation and medicaments containing them” (LABORATOIRES HOECHST S.A., priority 1989, dated 1990) can be followed below.

In brackets after ≈: the same amount, converted by molar mass.

The test system of test [1] is LXF. The test is described as follows: Xenograft (subrenal capsule assay), LXF lung tumour. The test is classed as in vivo. The following applies: for Xénogreffes LXF: grades not defined.
Test [2] concerns cellules tumorales L1210. In words: Proliferation test (MTT reduction), L1210. In kind it is cell-based. The following applies: L1210, 72 h incubation; for IC50: Mus musculus, L1210, 72 h, read-out: CI50 TEST AU MTT L1210. The procedure: (§1) Les témoins consistent en cellules tumorales exposées à un milieu de culture. Quatre puits sont préparés pour chaque concentration en anthracycline et pour le témoin. Après 65 heures. 50 µl de MTT (2,5 mg/ml dans du PBS) sont ajoutés.
(§2) Le MTT sera réduit en présence de cellules vivantes en un colorant formazan rouge insoluble. Après 7 à 24 heures d'incubation supplémentaire (dépendant des cellules utilisées), le surnageant est enlevé. Le colorant formazan est solubilisé par l'addition de 100 ul de DMSO dans chaque puits, suivie d'une agitation douce.
(§3) L'extinction est mesurée pour chaque puits, à 492 nm (photomètre Multiscan 340 CC Fa. Flow).
(§4) Les résultats sont exprimés comme le rapport de l'extinction après incubation avec les anthracyclines sur l'extinction obtenue avec les témoins.
A general note: Tetrazolium dyes change colour on reduction, which living cells bring about.

The subject of test [3] is cellules tumorales A549. The test is described as follows: Proliferation test (MTT reduction), A549. In kind it is cell-based. The following applies: A 549, 72 h incubation; for IC50: Homo sapiens, A549, 72 h, read-out: CI50 TEST AU MTT A 549. The procedure:
as §1, §2, §3, §4

Test [4] deals with cellules tumorales HT29. The test is described as follows: Proliferation test (MTT reduction), HT29. The test is classed as cell-based. The following applies: HT 29, 72 h incubation; for IC50: Homo sapiens, HT-29, 72 h, read-out: CI50 TEST AU MTT HT 29. The procedure:
as §1, §2, §3, §4

Test [5] concerns L1210. The test is described as follows: In vivo L1210 leukemia, survival time (T/C). Also noted: species or system souris BDF1. On the procedure: Un liquide d'ascite est prélevé dans des conditions aseptiques chez des souris DBA2 (femelle, 18 -20 g) le septième jours après l'implantation.
L'ascite est lavée trois fois avec du PBS, comptée et finalement diluée dans du PBS, de manière à obtenir 10^6 cellules/0,2 ml.
10^6 cellules dans 0,2 ml de PBS sont injectées dans le peritoine de souris DBA2 pour la propagation de la lignée cellulaire.
10^6 cellules dans 0,2 ml de PBS sont injectés intrapéritonéalement à des souris BDF1 (femelle 18 -20 g), 6 animauxigroupe sont utilisés pour chaque concentration de substance et pour le contrôle.
• a) les animaux sont pesés le premier jour et le cinquième jour après l'administration du médicament.
A partir du temps de survie moyen des groupes traités (MSTT) et des groupes contrôle (MSTc), l'effet antitumoral (T/C) est évalué en fonction de la formule suivante : [formula]

Test [6] concerns A549. The test is described as follows: Xenograft (subrenal capsule assay), A549. The test is classed as in vivo.
In test [7] the test system is HT29. The test is described as follows: Xenograft (subrenal capsule assay), HT29 colon tumour. The test is classed as in vivo.
The mark [8] stands for this setting: L1210 i.p. in BDF1 mice, schedule 3 i.v.

For `C[C@@H]1O[C@@H](O[C@H]2C[C@](O)(CO)Cc3c(O)c4c(c(O)c32)C(=O)c2ccccc2C4=O)C[C@H](O)[C@@H]1N` [Composé 13, chlorhydratede (S)-cis-1-O-(4-amino-2,4,6-trideoxy-α-L-lyxo-hexopyranosyl)-1,2.3.4,6.11-hexahydro-1,3,5,12-tétrahydroxy-3-hydroxyméthyl-6,11-naphtacène dione], the “Xénogreffes LXF” value in test [1] is listed as “+ +”. Also, in test [1] (in words), the “activité sur tumeur du poumon (LXF)” value is “actif”. Moreover, the “CI50 TEST AU MTT L1210” value in test [2] was 0,009 µg/ml. The “CI50 TEST AU MTT A 549” value in test [3] was 0,009 µg/ml. Also, the “CI50 TEST AU MTT HT 29” value in test [4] is 0,01 µg/ml. Besides, the dose optimale in test [5] (setting [8]) is 3,1 mg/kg/Inj. This compound yielded a T/C % in test [5] (L1210 i.p. in BDF1 mice, schedule 3 i.v., at optimal dose, T/C above 125 % = significant antitumour effect) of 133%. Besides, the activité antitumorale entry in test [5] (in words, at a dose about three times lower than that of doxorubicine) was “activité antitumorale non négligeable”. In addition, the “activité sur la lignée cellulaire A549” value in test [6] (in words) is “à un moindre degré”. Moreover, in test [7] (in words), the “activité sur tumeur du colon (HT29)” value is recorded as “à un moindre degré”.

For `C[C@@H]1O[C@@H](O[C@H]2C[C@](O)(CO)Cc3c(O)c4c(c(O)c32)C(=O)c2ccccc2C4=O)C[C@H](O)[C@@H]1N=[N+]=[N-]` [compound 6], the IC50 is 0.13 µg/mL (≈ 0.254 µM) in test [2], 0.24 µg/mL (≈ 0.469 µM) in test [3] and 0.46 µg/mL (≈ 0.899 µM) in test [4].

With `C[C@@H]1O[C@@H](O[C@H]2C[C@](O)(CO)Cc3c(O)c4c(c(O)c32)C(=O)c2ccccc2C4=O)C[C@H](O)[C@@H]1NC(=O)C(F)(F)F` [compound 11], the IC50 in test [2] came to 0.015 µg/mL (≈ 0.0258 µM); in test [3], 0.011 µg/mL (≈ 0.0189 µM); in test [4], 0.026 µg/mL (≈ 0.0447 µM).

Turning to `C[C@@H]1O[C@@H](O[C@H]2C[C@](O)(CO)Cc3c(O)c4c(c(O)c32)C(=O)c2ccccc2C4=O)C[C@H](O)[C@@H]1N` [compound 12, (S)-cis-1-O-{4 amino-2,4,6-trideoxy-α-L-lyxo-hexopyranosyl)-1,2,3,4,6,11-hexahydro-1,3,5,12-tétrahydroxy-3-hydroxyméthyl-6,11-naphtacène dione], in test [2], the “CI50 TEST AU MTT L1210” value is on record as 0,021 µg/ml. The “CI50 TEST AU MTT A 549” value in test [3] is on record as 0,24 µg/ml. The “CI50 TEST AU MTT HT 29” value in test [4] is listed as 0,03 µg/ml.

In the case of `C[C@@H]1O[C@@H](O[C@H]2C[C@](O)(CO)Cc3c(O)c4c(c(O)c32)C(=O)c2ccccc2C4=O)C[C@H](O)[C@@H]1N1CCOCC1` [compound 14, (S)-cis-1-O-{4-morpholino-2,4,6-tridésoxy-α-L-lyxo-hexopyranosyl)-1,2,3,4,6,11-hexahydro-1,3,5,12-tétrahydroxy-3-hydroxyméthyl-6,11-naphtacène dione], the IC50 came out at 0.15 µg/mL (≈ 0.27 µM) in test [2], 0.054 µg/mL (≈ 0.0972 µM) in test [3] and 0.13 µg/mL (≈ 0.234 µM) in test [4].

In the case of `COc1cccc2c1C(=O)c1c(O)c3c(c(O)c1C2=O)C[C@@](O)(C(=O)CO)C[C@@H]3O[C@H]1C[C@H](N)[C@H](O)[C@H](C)O1` [doxorubicine, reference compound], in test [1], the “Xénogreffes LXF” value was “+ + +”. Also, the dose optimale in test [5] (setting [8]) is 8,1 mg/kg/Inj. The “Xénogreffes A549” value in test [6] (grades not defined) was “+ +”. The “Xénogreffes HT29” value in test [7] (grades not defined) is “+ +”.
